Laboratory results from patent publication US12605386B2, “Sapropterin formulation” (APR Applied Pharma Research SA, priority 2022, dated 2026).
Like-named read-outs stand apart in the source and are kept apart here.

How the values were obtained:
[1] = Visual observation of unformulated SPT solutions; format: physicochemical; settings: 100 mM solutions; yellow/orange colour developed overtime
Protocol: Stability over time of unformulated SPT solutions was initially investigated through visual observation of 100 mM solutions. The solutions were seen to be very unstable and a yellow/orange colour developed overtime, presumably due to the formation of oxidation sub-products.

[2] = Peroxide degradation of sapropterin with HPLC analysis; format: physicochemical; settings: peroxide degradation: 5 mL of 0.1% H2O2, 1.5 hours, room temperature
Protocol: A sample of sapropterin was subjected to peroxide degradation with 5 mL of 0.1% H2O2 for 1.5 hours at room temperature.
HPLC analysis of the resulting oxidative degradation of sapropterin was performed according to the procedure described below and the results are shown in Table 2.
• Column: YMC Pack ODS AQ (250×4.6) mm, […] • Buffer: potassium dihydrogen phosphate pH3.0 with orthophosphoric acid • Mobile Phase A: 100% Buffer • Mobile Phase B: acetonitrile:methanol (1:9) • Wavelength: 220 nm for Impurity A, C, D, E, G • Wavelength: 275 nm for Impurity F • Flow: 0.6 ml/min • Injection Volume: 5 μl • Column Temperature: 30° C. • Sample Compartment: 5° C. • Run Time: 45 min Preparation of Mobile Phase: • Mobile Phase A: 2.72 g of potassium dihydrogen phosphate was added to 1000 ml of water and dissolved. pH was adjusted to 3.0 using orthophosphoric acid. The solution was mixed and filtered through 0.45 μm nylon membrane filter and degassed. • Mobile Phase B: 900 ml of methanol and 100 ml of acetonitrile was dissolved, mixed, and degassed.
Preparation of 0.1N HCl: 8.5 ml of hydrochloric acid was added to 900 ml of water, diluted to 1000 ml with water, and then mixed.
Diluent: 2.72 g of potassium dihydrogen phosphate was added to 1000 ml of water and dissolved. pH was adjusted to 3.0 using orthophosphoric acid. 10 mg of ascorib acid was added, mixed, and then filtered through 0.45 μm nylon membrane filter and degassed.

[3] = HPLC analysis of sapropterin solutions in water; format: physicochemical
Protocol: Visual observations of degradation of sapropterin solutions were confirmed through HPLC analysis. The following methodology was used: Samples that were diluted to ca. 1 mM prior to analysis. HPLC Method • Column: Partisil […] SCX 250× (from […]) • Mode: isocratic • Mobile phase: KH2PO4 30 mM at pH 3.0 • Oven temperature: 30° C. • injection volume: 25 μL • flow: 1.5 mL/min (generated ca. 60 bar) • Detection: DAD 254-360 with acquisition at 254 HPLC System (VWR Hitachi) • VWR Hitachi L-2000 organizer • DAD: L2455 • Autosampler: L2200 • Pump: L2130 • Column oven: L2350 Preparation of Mobile Phase • 1) V (H2O)=500 mL • 2) m(KH2PO4)=2.04 g (MW=136.09 g/mol) • 3) To pH 3 with phosphoric acid diluted 50 fold with water (v/v) • Note: prior to dilution phosphoric acid stock was at 85% • Note2: 5-8 g of 1/50 diluted solution are required to drop pH to 3.0 Three solutions of sapropterin in water at 100 mM were submitted to HPLC analysis. Each solution was tested at a different time point one was tested when freshly prepared, one after one day and the other after 7 weeks old.

[4] = Vegetable oil suspension stability study, water extraction and HPLC; format: physicochemical; settings: oil free control; freshly prepared aqueous solutions
Protocol: A simple stability study was carried out to establish the stability potential of the formulations tested. The stability study was carried out for a month at room temperature as this would reflect the conditions under which the material would be stored.
The stability work was focused on vegetable oils. Food grade vegetable oils were tested and they were sourced from a supermarket and only opened before starting the stability work. Exploratory stability work was then carried out to establish the potential of liquid formulations for sunflower oil, olive oil, rapeseed oil and rice bran oil.
Stability was informally assessed by preparing 10% w/w sapropterin suspensions and storing at room temperature on a shelf away from direct sunlight. Individual aliquots were prepared at each time point. At each sampling point sapropterin was extracted from oil with water as set out below and the sample analysed by HPLC. Absence of degradation products was used to establish lack of oxidation. The HPLC method set out above was not validated for quantitative analysis. Instead, SPT peak size was also semi-quantitatively used to further corroborate absence of oxidation but this was carried out by simply overlaying traces (e.g. SPT peak size at day 0 vs day 7) rather than performing calibrations curves of SPT. […]
Samples were analysed at day 0, day 5, day 7, and/or day 31.

[5] = powder and tablet formulations suspended in various foods and water at 20 mg/mL (62 mM); after one hour; cited from earlier work
[6] = cited from earlier work
[7] = cited from earlier work; remark: listed apart in the source
[8] = 0.1 M phosphate buffer, pH 6.8, room temperature

For C[C@H](O)[C@H](O)[C@H]1CNc2nc(N)[nH]c(=O)c2N1 [Sapropterin, sapropterin], the “stability over time (visual observation)” value [1] was “very unstable”, the “Impurities (% w/w): Impurity A” value [2] was 0.02 % w/w and the “Impurities (% w/w): Impurity B” value [2] was 11.791 % w/w. The “Impurities (% w/w): Impurity C” value [2] was 5.322 % w/w, the “Impurities (% w/w): Impurity D” value [2] was 0.116 % w/w and the “Impurities (% w/w): Impurity H” value [2] was 0.106 % w/w. For the same compound, the “Impurities (% w/w): Unknown impurity @RRT 0.70” value [2] was 0.191 % w/w, the “Impurities (% w/w): Unknown impurity @RRT 0.85” value [2] was 0.026 % w/w and the “Impurities (% w/w): Unknown impurity @RRT 0.89” value [2] was 0.010 % w/w. The “Impurities (% w/w): Unknown impurity @RRT 0.94” value [2] was 0.108 % w/w, the “Impurities (% w/w): Unknown impurity @RRT 1.11” value [2] was 0.015 % w/w and the “Impurities (% w/w): Unknown impurity @RRT 1.41” value [2] was 0.212 % w/w. For the same compound, the “Impurities (% w/w): Unknown impurity @RRT 1.54” value [2] was 0.022 % w/w, the “Impurities (% w/w): Unknown impurity @RRT 1.63” value [2] was 0.010 % w/w and the “Impurities (% w/w): Unknown impurity @RRT 1.77” value [2] was 0.007 % w/w. The “Impurities (% w/w): Unknown impurity @RRT 2.08” value [2] was 0.004 % w/w, the “Impurities (% w/w): Unknown impurity @RRT 2.15” value [2] was 0.007 % w/w and the “Impurities (% w/w): Unknown impurity @RRT 2.24” value [2] was 0.006 % w/w. The “Impurities (% w/w): Unknown impurity @RRT 2.34” value [2] was 0.095 % w/w, the major degradation products [2] was “Impurities B and C” and the “time after which an oxidation sub-product peak became evident” value ([3]; 1 mM solution) was 2 h. For the same compound, the “oxidation product by HPLC” value ([3]; 100 mM in water, after 7 weeks) was “showed a peak at 4.2 min attributed to oxidation sub-products”, the “oxidation product by HPLC” value ([3]; 100 mM in water, after one day) was “showed a peak at 4.2 min attributed to oxidation sub-products” and the “oxidation product by HPLC” value ([3]; 100 mM in water, freshly prepared) was “did not show any oxidation product”. The “reduction in the SPT peak by oxidation” value ([3]; 100 mM in water, within a period of 24 h) was “not pronounced”, the “oxidation products by HPLC” value [4] was “vestigial amounts of oxidation products” and the sapropterin degraded [5] was 3-7%. For the same compound, the “pH of solution in water” value ([6]; 1 mM solution) was 3.0, the “pH of solution in water” value ([6]; 1 M solution) was 0.45 and the solubility in water [6] was “freely soluble”. For the same compound, the “degradation of solution in water” value ([7]; 0.1 mM, after 1 hour open at room temperature) was “about 25%”, the “degradation of solution in water” value ([7]; 0.1 mM, after 3 hours) was “more than 60%” and the “degradation of solution in water” value ([7]; 1 mM, after 1 hour open at room temperature) was 2%. The “degradation of solution in water” value ([7]; 1 mM, after 3 hours) was 10%, the half-life [7, 8] was ~16 min and the “time until completely destroyed” value [7, 8] was 90 min. For the same compound, the “stability of solutions in 0.1 N HCl” value ([7]; −20° C.) was “stable for several weeks”.
